Assay results as given in patent US7691601B2, “Medium for detecting and/or identifying of microorganisms” (priority 2003, dated 2010).

Legend:
[1] = test system: free α-glucosidase in a sample (stools); assay: Coloration at the point of deposit of the stool, castanospermine medium; type: biochemical; parameters: key to Deposit coloration: 0=no coloration; 0.5=trace of coloration; 1=weak coloration; 2=strong coloration; conditions: for Deposit coloration: Table 6
Method: (§1) Seeding of Salmonella bacteria: 10 μl of stools are deposited onto a Petri dish, this stool suspension is mixed or not mixed with 10 μl of a suspension of Salmonella (0.5 McF) and isolated as 3 dials on a Petri dish. Various […] and various Salmonella strains originating from the applicant's collection are used according to this protocol. The Petri dishes are incubated at 37° C. for 24 hours. The appearance of a coloration at the point of deposit of the stool (“deposit” column) and at the Salmonella colony (“colony” column) is read according to a semi-quantitative scale: • 0=no coloration • 0.5=trace of coloration • 1=weak coloration • 2=strong coloration The results obtained are given in Table 1.
(§2) Preparation of the detection medium: 250 ml of the medium of Example 1, in which the O,O-diethyl p-nitrophenyl phosphate is replaced with various concentrations of castanospermine: 0, 1, 2, 4 and 8 g/l, are prepared according to the method of Example 1.
(§3) The various detection media thus obtained are poured into Petri dishes.
(§4) Seeding of Staphylococcus aureus strains: The Petri dishes are inoculated, incubated and read as in Example 1.

[2] = test system: Staphylococcus aureus strains; assay: Coloration of Staphylococcus aureus colonies, castanospermine medium; type: cell-based; parameters: key to Colonies coloration: 0=no coloration; 0.5=trace of coloration; 1=weak coloration; 2=strong coloration; conditions: for Colonies coloration: Table 6
Method: as §1, §2, §3, §4

[3] = Colonies column read for stool without added strain, castanospermine medium; parameters: key: 0=no coloration; 0.5=trace of coloration; 1=weak coloration; 2=strong coloration; conditions: Table 6, no strain
Method: as §1, §2, §3, §4

[4] = 1 g/l, stool A, Staphylococcus aureus No. 1
[5] = 1 g/l, stool B, Staphylococcus aureus no 2
[6] = 2 g/l, stool A, Staphylococcus aureus No. 1
[7] = 2 g/l, stool B, Staphylococcus aureus no 2
[8] = 4 g/l, stool A, Staphylococcus aureus No. 1
[9] = 4 g/l, stool B, Staphylococcus aureus no 2
[10] = 8 g/l, stool A, Staphylococcus aureus No. 1
[11] = 8 g/l, stool B, Staphylococcus aureus no 2

castanospermine
Deposit coloration [1, 4]: 2
Deposit coloration ([1]; 1 g/l, stool A, no strain): 1
Deposit coloration [1, 5]: 2
Deposit coloration ([1]; 1 g/l, stool B, no strain): 0.5
Deposit coloration [1, 6]: 1
Deposit coloration ([1]; 2 g/l, stool A, no strain): 1
Deposit coloration [1, 7]: 1
Deposit coloration ([1]; 2 g/l, stool B, no strain): 0.5
Deposit coloration [1, 8]: 1
Deposit coloration ([1]; 4 g/l, stool A, no strain): 0.5
Deposit coloration [1, 9]: 0.5
Deposit coloration ([1]; 4 g/l, stool B, no strain): 0
Deposit coloration [1, 10]: 1
Deposit coloration ([1]; 8 g/l, stool A, no strain): 0
Deposit coloration [1, 11]: 0
Deposit coloration ([1]; 8 g/l, stool B, no strain): 0
Aspecific enzymatic reactions due to the presence of free enzymes ([1]; stools, Staphylococcus aureus identification, summary in words): greatly inhibited
Enzymes originating from the bacteria ([2]; Staphylococcus aureus colonies, summary in words): not inhibited
Colonies coloration [2, 4]: 2
Colonies coloration [2, 5]: 2
Colonies coloration [2, 6]: 2
Colonies coloration [2, 7]: 2
Colonies coloration [2, 8]: 2
Colonies coloration [2, 9]: 2
Colonies coloration [2, 10]: 1
Colonies coloration [2, 11]: 1
Colonies coloration ([3]; 1 g/l, stool A): 0
Colonies coloration ([3]; 1 g/l, stool B): 0
Colonies coloration ([3]; 2 g/l, stool A): 0
Colonies coloration ([3]; 2 g/l, stool B): 0
Colonies coloration ([3]; 4 g/l, stool A): 0
Colonies coloration ([3]; 4 g/l, stool B): 0
Colonies coloration ([3]; 8 g/l, stool A): 0
Colonies coloration ([3]; 8 g/l, stool B): 0
